Source: patent publication US9051467B2, “Method of analysing a cell or other biological material containing a nucleic acid” (BIOSTATUS LIMITED, priority 2010, dated 2015)

Assays:
[1] = tested on: live cells and dead cells; test: Cell permeant/cell impermeant dye combination staining of live and dead cells; type: cell-based; set-up: key to Live cell stain / Dead cell stain: +: positive; −: negative; details: for Dead cell stain / Live cell stain: combination staining pattern, predicted
Excerpt: It will be appreciated that this provides the opportunity to perform numerous advantageous two-colour, two-fluorochrome experiments. Moreover, the present inventors have realised that dye combinations of this type also provide a platform for performing a range of advantageous experiments using one or more further fluorochromes.
(§1) These possible detection systems and others will now be described in more detail with reference to FIGS. 1 to 9. […] Therefore, the Compound of Formula (IIA) fluorescence is generally in the orange portion of the visible spectrum, whereas compound (IA) fluorescence is generally in the far red portion of the visible spectrum. […] The compound of Formula (IIA) is a cell permeant dye, and therefore it would be expected that the fluorescence signature B would be in connection with live or dead cells. […] As might perhaps be expected, it is only the fluorescence signature B associated with the cell permeant dye which is observed. […] It might be expected that a significant contribution of the observed fluorescence would emanate from the compound of Formula (IIA) dye. […] Therefore, the compound (IA) dye appears to quench the compound of Formula (IIA) signal. […] However, other mechanisms may play a role. The upshot is that it is possible to provide a “traffic light” system to indicate the state of a cell, wherein fluorescence in one spectral region A is associated with dead cells, and fluorescence in another spectral region B is associated with live cells.

[2] = Spectral properties (absorbance and fluorescence spectra); type: physicochemical; details: for Em peak / Ex peak: FIG. 1, in general terms (diagrammatically)
Excerpt: as §1
Compound (IA) was synthesized using the principles described in Example 2 and stored at +4° C. as a stock solution of 5 mM compound (IA) dilution in buffer. Absorbance spectra were obtained using a spectrometer and a 20 μM solution of agent dissolved in PBS and measured in a 1 cm path quartz silica cuvette. Fluorescence spectra for a solution of 20 μM compound (IA) in a 1 cm path length semi-micro quartz cuvette were determined by excitation at 633, 589, 534, 488 nm. Fluorescence measurements were made on a Perkin Elmer LS50 spectrofluorometer with slit widths set at 10 nm. The spectrofluoremeter was equipped with a red-sensitive photomultiplier tube (Type R928; Hamamatsu Photonics KK, Japan. Data were accumulated and exported into a spread sheet to correct for the buffer control and to determine emission maxima. The results are shown in FIG. 8. Compound (IA) may be sub-optimally excited by wavelengths from 488 nm (in flow cytometry) and up to 647 nm (Exλmax 646 nm). Typically, for cell imaging, excitation is performed with either 633 nm or 647 nm wavelengths. Emission spectra are independent of excitation wavelength, ie, all the emission spectra are identical irrespective of excitation wavelength.

[3] = tested on: DoHH2 cultures treated with VP-16; test: Combination tracking of cell status with compound (IA) plus compound (IIA), flow cytometry; type: cell-based, human; details: 20 μM compound (IIA) and 4 μM compound (IA), 10 minutes, VP-16 0.25 μM
Protocol: Cell culture and drug treatment: A human follicular B-lymphoma cell line was used in this study. DoHH2 was routinely maintained in RPMI 1640 supplemented with 5% FCS and 100 U ml-1 penicillin, 100 μgml^−1 streptomycin, and 2 mM glutamine. The cells were passaged twice weekly at an initiating density of 5×10^4 cells ml^−1 cultured at 37° C. in a humidified atmosphere of 5% CO2/95% air. Cells were set at 5×10^5 cells/per ml and exposed to VP-16 doses (0.25 μM) to induce apoptosis. 20 μM Compound (IIA) and 4 μM compound (IA) were added to 1 ml of cells and incubated under standard culture conditions for 10 minutes. The samples were analysed by flow cytometry.
A FACS Vantage flow cytometer (as for example above) was used. Compound (IIA) and compound (IA) fluorescent signals derived from 488 nm excitation were detected in linear mode at FL2 for Compound (IIA) (585/42 nm filters); compound (IA) signal derived from 488 nm were detected in linear mode at FL3 with a 695LP filter and a FL1/2 560 nm SP dichroic SP to determine scatter properties. Signals for forward and side scatter and fluorescence were collected for 10,000 cells using the forward light scatter parameter as the master signal. Contour plots of side versus forward scatter depict two populations of cells. The addition of Compound (IIA) and compound (IA) provide functional status of these cultures. […]

[4] = tested on: human Jurkat cells; test: Multi-parameter JC-1 / compound (IA) analysis of staurosporine treated cells; type: cell-based; details: 3 μM with JC-1, Jurkat cells, 1 μM staurosporine for 4 hours
Excerpt: In this example, the dye JC-1 (5,5′,6,6′-tetrachloro-1,1′,3,3′-tetraethylbenzimidazol-carbocyanine iodide) is a lipophilic fluorescent cation that incorporates into the mitochondrial membrane, where it can form aggregates due to the physiological maintenance membrane potential of mitochondria. Aggregation modifies the fluorescence properties of JC-1 leading to a shift from green to orange fluorescence. Flow cytometry or imaging was used to monitor the decrease of the orange fluorescence and an increase of the green fluorescence allowing apoptotic cells to be distinguished from non-apoptotic cells.
Cell culture and drug treatment: A Jurkat cell line was used in this study Jurkat cultures was routinely maintained in RPMI 1640 supplemented with 10% FCS and 100 U ml-1 penicillin, 100 μg ml-1 streptomycin, and 2 mM glutamine. […] These were then analysed by flow cytometry or placed into a Nunc, 2 Well Lab-Tek II, (Fisher Scientific) and analysed by three channel confocal microscopy.
Multi-parameter flow cytometry of staurosporine treated cells A FACS Vantage flow cytometer (as for example above). […] JC-1 two parameter fluorescent signal were derived from 488 nm excitation were detected in logarithmic mode Green J-monomer was detected using FL1 (530/30 nm emission); Orange J-aggregate was detected using FL2 (585/42 nm emission). […]

[5] = tested on: fixed U-2 OS human osteosarcoma cells; test: Nuclear staining of fixed cells by fluorescence microscopy; type: cell-based; details: 20 μM, cells fixed with 4% paraformaldehyde
Protocol: Cell culture: Human osteosarcoma cells U-20S (ATCC HTB-96) cells (adherent) were cultured in McCoy's 5a medium supplemented with 10% foetal calf serum (FCS), 1 mM glutamine, and antibiotics and incubated at 37° C. in an atmosphere of 5% CO2 in air. For fluorescence imaging experiments, cells were grown at a density of 1×10^5 cells ml^−1 as a monolayer in coverglass bottomed chambers (Nunc, 2 Well Lab-Tek II, Fisher Scientific). Imaging: Following a 24 hour period cells were then fixed with 4% paraformaldehyde in PBS for 15-30 min at room temperature. No washing step is required. Compound (IA) was used in a manner appropriate to being the final staining procedure, after any treatment. Compound (IA) was added directly at 20 μM in to a 0.5 ml PBS overlay of the adherent cells. Cells were directly viewed using wide-field fluorescence microscopy. Chambers were placed onto an Axiovert 100 microscope (Carl Zeiss, Welwyn Garden City, UK and using a 40×, 1.3 NA oil immersion plan apochromat lens).fluorescence images (Ex: 620/60 nm; Em 700/75 nm) nm captured using an ORCA-ER CCD camera (Hamamatsu, Reading, UK) and MetaMorph (MDS, USA) acquisition software. […] The compound (IA) staining of nuclei were segmented using a simple threshold algorithm which depict the nuclei, and provide binary or mask information of each nucleus (object) localization. […]

Em peak [2] | Ex peak [2] | Exλmax ([2]; 20 μM solution in PBS) | Compound | Cell permeation property [1] | Dead cell stain [1] | Live cell stain [1] | Fluorescence observed in dead cells ([1]; in combination with compound (IA)) | Cell fraction identified [3] | Discrimination of early and late apoptosis sub-fractions [4] | Nuclear localisation of dye [5]
615 nm | 518 nm |  | CN(C)CCNc1cccc2c1C(=O)c1cccc(NCCN(C)C)c1C2=O [Compound (IIA), 1,5-Bis{[2-(dimethylamino)ethyl]amino}anthracene-9,10-dione] | cell permeant | − | + | little or no fluorescence | positive cells represent the live cell (viable) fraction |  | 
660 nm | 620 nm | 646 nm | 1,5-Bis{[2-(trimethylamino)ethyl]amino}-5,8-dihydroxyanthracene-9,10-dione iodide [Compound (IA)] | cell impermeant | + | − |  | identifies the non-intact cell fraction | can depict these sub-fractions | localization of high levels of compound (IA) in the nucleus
